Among the data in US9089133B2, “Insecticide for agricultural or horticultural use and method of use thereof” (MITSUI CHEMICALS, INC., priority 2003, dated 2015) are mortality values, retold here.

SMILES strings stand for the structures.

Test [1] has as its system Common Cutworm (Spodoptera litura). Nature of the test: Insecticidal test for common cutworm (cabbage leaf dip). Particulars: foliar, 72 h, cabbage leaf immersed 30 seconds, 2nd-instar larvae, 25° C., three days after. Format: in vivo. As for the experimental part:
Insecticidal Test for Common Cutworm (Spodoptera litura)
A cabbage leaf piece was immersed in a solution prepared by diluting a test compound to a predetermined concentration for 30 seconds, and then dried in air. Then, the cabbage leaf piece was placed in a polyethylene cup of 7 cm-size in which 2nd-instar larvae of common cutworm were placed. The cup was allowed to stand in a thermostatic chamber at 25° C. Three days after, the numbers of living and dead larvae were counted. The test was carried out in two replications each containing five larvae.

For test [2], the system named is Diamondback Moth (Plutella xylostella). Nature of the test: Insecticidal test for diamondback moth (cabbage leaf dip). Format: in vivo. The following applies: foliar, 72 h, cabbage leaf immersed 30 seconds, 2nd-instar larvae, 25° C., three days after. The procedure: Insecticidal Test for Diamondback Moth (Plutella xylostella)
A cabbage leaf pieces was immersed in a solution prepared by diluting a test compound to a predetermined concentration for 30 seconds, and then dried in air. Then, the leaf piece was placed in a polyethylene cup of 7 cm-size in which 2nd-instar larvae of […] were placed. The cup was allowed to stand in a thermostatic chamber at 25° C. Three days after, the numbers of living and dead larvae were counted. The test was carried out in two replications each containing five larvae.

As to `O=C(Nc1cccc(C(=O)Nc2ccc(C(F)(F)F)cc2C(F)(F)F)c1)OCC(F)(F)C(F)(F)F` [Compound No. 250, N-(2,4-bistrifluoromethylphenyl) 3-[(2,2,3,3,3-pentafluoro-n-propyloxy)carbonylamino]benzamide], the mortality at 1000 ppm in test [1] and in test [2] was at least 70% throughout.

In general, mortality refers to the percentage killed. A lower mortality goes with a weak lethal effect.
